Drawing on PubChem BioAssay AID1259407 (Chemical Carcinogenesis Research Information System (CCRIS), 2018), this text covers mutagenic call for twelve compounds.

In this data set the test system is CCRIS mutagenicity, Ames/micronucleus/aberration tests. In words: CCRIS mutagenicity studies.
[1] abbreviates: Test System: AMES SALMONELLA TYPHIMURIUM, Strain/Indicator: TA98, Metabolic Activation: NONE, Method: PREINCUBATION
Where [2] appears, read: Test System: AMES SALMONELLA TYPHIMURIUM, Strain/Indicator: TA100, Metabolic Activation: NONE, Method: PREINCUBATION
The mark [3] stands for this setting: Test System: AMES SALMONELLA TYPHIMURIUM, Strain/Indicator: TA100, Metabolic Activation: NONE, Method: STANDARD PLATE.
Setting [4] is: Test System: AMES SALMONELLA TYPHIMURIUM, Strain/Indicator: TA98, Metabolic Activation: NONE, Method: STANDARD PLATE.
[5] abbreviates: Test System: AMES SALMONELLA TYPHIMURIUM, Strain/Indicator: TA98, Metabolic Activation: RAT, LIVER, S-9, AROCLOR 1254, Method: STANDARD PLATE.
The mark [6] stands for this setting: Test System: AMES SALMONELLA TYPHIMURIUM, Strain/Indicator: TA100, Metabolic Activation: RAT, LIVER, S-9, AROCLOR 1254, Method: STANDARD PLATE.
[7] abbreviates: Test System: AMES SALMONELLA TYPHIMURIUM, Strain/Indicator: TA98, Metabolic Activation: NONE, Method: SUSPENSION/PLATE.
[8] abbreviates: Test System: AMES SALMONELLA TYPHIMURIUM, Strain/Indicator: TA100, Metabolic Activation: NONE, Method: SUSPENSION/PLATE.

Structures are written as SMILES. Activity calls are given as the source filed them. No rule for the calls is given here.

For the compound `O=c1[nH][nH]c(=O)c2cc([N+](=O)[O-])ccc12`, the mutagenic call reads like this: (Test System: AMES SALMONELLA TYPHIMURIUM, Strain/Indicator: TA98, Metabolic Activation: HAMSTER, LIVER, S-9, AROCLOR 1254 (30%), Method: PREINCUBATION) “active; positive”; under setting [1], “active; positive”; (Test System: AMES SALMONELLA TYPHIMURIUM, Strain/Indicator: TA98, Metabolic Activation: RAT, LIVER, S-9, AROCLOR 1254 (30%), Method: PREINCUBATION) “active; positive”; (Test System: AMES SALMONELLA TYPHIMURIUM, Strain/Indicator: TA100, Metabolic Activation: HAMSTER, LIVER, S-9, AROCLOR 1254 (30%), Method: PREINCUBATION) “active; positive”; under setting [2], “active; positive”; (Test System: AMES SALMONELLA TYPHIMURIUM, Strain/Indicator: TA100, Metabolic Activation: RAT, LIVER, S-9, AROCLOR 1254 (30%), Method: PREINCUBATION) “inactive; negative”.
For the compound `CC(=O)[O-].CC(=O)[O-].CC(=O)[O-].[Cr+3]`, the mutagenic call by setting is: (End Point: IN VITRO MICRONUCLEUS, Test System: CHL/IU CELLS, Metabolic Activation: NONE) “active; positive”; (Test System: UDS RAT HEPATOCYTES, Strain/Indicator: THY INCORP, Metabolic Activation: NONE, Method: AUTORADIOGRAPHY) “inactive; negative”.
For `Cc1cc(C)c(CN2C3c4ccccc4-c4ccccc4C32)c(C)c1` (stereo not drawn), the mutagenic call under setting [3] is “active; positive”.
For `COC(=O)Nc1nc2ccc(O)cc2[nH]1`, the mutagenic call by setting is: under setting [4], “inactive; negative”; under setting [5], “inactive; negative”; under setting [3], “inactive; negative”; under setting [6], “inactive; negative”; (Test System: AMES SALMONELLA TYPHIMURIUM, Strain/Indicator: TA1535, Metabolic Activation: NONE, Method: STANDARD PLATE) “inactive; negative”; (Test System: AMES SALMONELLA TYPHIMURIUM, Strain/Indicator: TA1535, Metabolic Activation: RAT, LIVER, S-9, AROCLOR 1254, Method: STANDARD PLATE) “inactive; negative”. The mutagenic call is “inactive; negative” (Test System: AMES SALMONELLA TYPHIMURIUM, Strain/Indicator: TA1537, Metabolic Activation: NONE, Method: STANDARD PLATE) and “inactive; negative” (Test System: AMES SALMONELLA TYPHIMURIUM, Strain/Indicator: TA1537, Metabolic Activation: RAT, LIVER, S-9, AROCLOR 1254, Method: STANDARD PLATE).
With `CCCN(CCC)S(=O)(=O)c1ccc(C(=O)O)cc1`, the mutagenic call runs as follows: (Test System: AMES SALMONELLA TYPHIMURIUM, Strain/Indicator: TA98, Metabolic Activation: HAMSTER, LIVER, S-9, AROCLOR 1254 (10%), Method: PREINCUBATION) “inactive; negative”; under setting [1], “inactive; negative”; (Test System: AMES SALMONELLA TYPHIMURIUM, Strain/Indicator: TA98, Metabolic Activation: RAT, LIVER, S-9, AROCLOR 1254 (10%), Method: PREINCUBATION) “inactive; negative”; (Test System: AMES SALMONELLA TYPHIMURIUM, Strain/Indicator: TA100, Metabolic Activation: HAMSTER, LIVER, S-9, AROCLOR 1254 (10%), Method: PREINCUBATION) “inactive; negative”; under setting [2], “inactive; negative”; (Test System: AMES SALMONELLA TYPHIMURIUM, Strain/Indicator: TA100, Metabolic Activation: RAT, LIVER, S-9, AROCLOR 1254 (10%), Method: PREINCUBATION) “inactive; negative”. Also, the mutagenic call (Test System: AMES SALMONELLA TYPHIMURIUM, Strain/Indicator: TA1535, Metabolic Activation: HAMSTER, LIVER, S-9, AROCLOR 1254 (10%), Method: PREINCUBATION) was “inactive; negative”; the mutagenic call (Test System: AMES SALMONELLA TYPHIMURIUM, Strain/Indicator: TA1535, Metabolic Activation: NONE, Method: PREINCUBATION) is “inactive; negative”; the mutagenic call (Test System: AMES SALMONELLA TYPHIMURIUM, Strain/Indicator: TA1535, Metabolic Activation: RAT, LIVER, S-9, AROCLOR 1254 (10%), Method: PREINCUBATION) is “inactive; negative”; the mutagenic call (Test System: AMES SALMONELLA TYPHIMURIUM, Strain/Indicator: TA1537, Metabolic Activation: HAMSTER, LIVER, S-9, AROCLOR 1254 (10%), Method: PREINCUBATION) is “inactive; negative”; the mutagenic call (Test System: AMES SALMONELLA TYPHIMURIUM, Strain/Indicator: TA1537, Metabolic Activation: NONE, Method: PREINCUBATION) is “inactive; negative”; the mutagenic call (Test System: AMES SALMONELLA TYPHIMURIUM, Strain/Indicator: TA1537, Metabolic Activation: RAT, LIVER, S-9, AROCLOR 1254 (10%), Method: PREINCUBATION) was “inactive; negative”.
As to `NC1CCCC(N)C1` (stereo not drawn), the mutagenic call is “inactive; negative” under setting [1]; “inactive; negative” (Test System: AMES SALMONELLA TYPHIMURIUM, Strain/Indicator: TA98, Metabolic Activation: RAT, LIVER, S-9, PCB, Method: PREINCUBATION); “inactive; negative” under setting [2]; “inactive; negative” (Test System: AMES SALMONELLA TYPHIMURIUM, Strain/Indicator: TA100, Metabolic Activation: RAT, LIVER, S-9, PCB, Method: PREINCUBATION).
With `Oc1ccc(Cl)cc1`, the mutagenic call was “inactive; negative” (Test System: AMES SALMONELLA TYPHIMURIUM, Strain/Indicator: TA97, Metabolic Activation: NONE, Method: STANDARD PLATE); “active; positive” (Test System: AMES SALMONELLA TYPHIMURIUM, Strain/Indicator: TA97, Metabolic Activation: RAT, LIVER, S-9, AROCLOR 1254, Method: STANDARD PLATE); “inactive; negative” under setting [4]; “active; positive” under setting [5]; “active; positive” (Test System: AMES SALMONELLA TYPHIMURIUM, Strain/Indicator: TA98, Metabolic Activation: S-9, Method: STANDARD PLATE); “inactive; negative” under setting [3]. The mutagenic call is, setting by setting: under setting [6], “active; positive”; (Test System: AMES SALMONELLA TYPHIMURIUM, Strain/Indicator: TA100, Metabolic Activation: S-9, Method: STANDARD PLATE) “inactive; negative”; (Test System: AMES SALMONELLA TYPHIMURIUM, Strain/Indicator: TA104, Metabolic Activation: NONE, Method: STANDARD PLATE) “inactive; negative”; (Test System: AMES SALMONELLA TYPHIMURIUM, Strain/Indicator: TA104, Metabolic Activation: RAT, LIVER, S-9, AROCLOR 1254, Method: STANDARD PLATE) “inactive; negative”.
As for `CCOc1cc2c(c3ccc4ccccc4c13)CCC2=O`, the mutagenic call under setting [6] is “inactive; negative”.
With `O=Cc1ccc([N+](=O)[O-])cc1[N+](=O)[O-]`, the mutagenic call is, setting by setting: (Test System: AMES SALMONELLA TYPHIMURIUM, Strain/Indicator: TA98(1,8-DNP6), Metabolic Activation: NONE, Method: SUSPENSION/PLATE) “active; positive”; (Test System: AMES SALMONELLA TYPHIMURIUM, Strain/Indicator: TA98(NR), Metabolic Activation: NONE, Method: SUSPENSION/PLATE) “active; positive”; under setting [1], “active; positive”; under setting [7], “active; positive”; (Test System: AMES SALMONELLA TYPHIMURIUM, Strain/Indicator: TA98, Metabolic Activation: RAT, LIVER, S-9, PHENOBARBITAL AND 5,6-BENZOFLAVONE, Method: PREINCUBATION) “active; positive”; (Test System: AMES SALMONELLA TYPHIMURIUM, Strain/Indicator: TA100(1,8-DNP6), Metabolic Activation: NONE, Method: SUSPENSION/PLATE) “active; positive”. Further, the mutagenic call reads like this: (Test System: AMES SALMONELLA TYPHIMURIUM, Strain/Indicator: TA100(NR), Metabolic Activation: NONE, Method: SUSPENSION/PLATE) “active; positive”; under setting [2], “active; positive”; under setting [8], “active; positive”; (Test System: AMES SALMONELLA TYPHIMURIUM, Strain/Indicator: TA100, Metabolic Activation: RAT, LIVER, S-9, PHENOBARBITAL AND 5,6-BENZOFLAVONE, Method: PREINCUBATION) “active; positive”.
As for `CC(=O)[C@@]1(C)O[C@]12C(=O)C=Cc1ccccc12`, the mutagenic call under setting [2] is “inactive; negative”.
Regarding `CC12OOC1(COC(=O)Nc1ccc(Cl)cc1)Oc1ccccc12` (stereo not drawn), the mutagenic call under setting [2] is “active; positive”.
On to `[Cl][Sn]([Cl])([Cl])[Cl]`, for which the mutagenic call is “inactive; negative” under setting [7] and “inactive; negative” under setting [8].
